US8158621B2, “Methods of treating or preventing autoimmune diseases with 2,4-pyrimidinediamine compounds” (Rigel Pharmaceuticals, Inc., priority 2002, dated 2012)
pIC50: −log10 of the molar value. Like-named read-outs stand apart in the source and are kept apart here.

Tests used:
[1] = test system: cultured human mast cells (CHMC); experiment: CHMC low cell density ionomycin activation: tryptase assay; assay type: cell-based; settings: low cell density; read-out: CHMC Ionomycin Tryptase
[2] = test system: bone marrow derived mast cells (BMMC); experiment: BMMC high cell density IgE activation: hexosaminidase; assay type: cell-based, mouse; settings: high cell density; read-out: BMMC anti-IgE Hexos.
Protocol: After sensitizing, cells are counted, pelleted (1000 rpm, 5-10 minutes), and resuspended at 1-3×10^6 cells/ml in MT buffer. Add 100 ul of cell suspension to each well and 100 ul of compound dilutions. The final vehicle concentration is 0.5% DMSO. Incubate at 37° C. (5% CO2) for 1 hour. After 1 hour of compound treatment, stimulate cells with 6× stimulus (60 ng/ml DNP-BSA). Mix wells with the cells and allow plates to incubate at 37° C. (5% CO2) for one hour. After 1 hour incubation, pellet cells (10 minutes, 1000 RPM) and collect 200 ul per well of the supernatant, being careful not to disturb pellet, and transfer to a clean tube or 96-well plate. Place the supernatant plate on ice. During the 4-5 hour step (see next) perform the hexosiminidase assay. Resuspend cell pellet in 240 ul WEI-conditioned media containing 0.5% DMSO and corresponding concentration of compound. Incubate BMMC cells for 4-5 hours at 37° C. (5% CO2). After incubation, pellet cells (1000 RPM, 10 minutes) and collect 225 ul per well and place in −80° C. until ready to perform ELISAS. ELISAS are performed on appropriately diluted samples (determined empirically for each donor cell population so that the sample measurement falls within the standard curve) following the supplier's instructions.
Add 50 uL of BMMC cell supernatant (see above) to the hexoseaminidase substrate, place at 37° C. for 30 minutes and read the plate at 5, 10, 15, and 30 minutes on a spectrophotometer.

Syk kinase = target: T1, Syk kinase (Homo sapiens, UniProt P43405); experiment: Syk kinase biochemical fluorescence polarization assay; settings: isolated Syk kinase, fluorescence polarization, 4 uM ATP
T1 construct: purchased Upstate, Lake Placid NY

[3] = test system: IgE-induced degranulation of tissue mast cells; experiment: Mouse model of passive cutaneous anaphylaxis (PCA); assay type: in vivo; settings: positive controls
Protocol: This model provides a direct measure of IgE-induced degranulation of tissue mast cells. In this model, IgE primed animals are exposed to an allergen challenge, and the change in permeability of dermal vasculature that results from histamine release from mast cells is measured by change in the amount of dye leakage into surrounding tissue. Inhibition of mediator release by compounds that modulate mast cell degranulation is easily measured by extracting the dye from the tissue.
In the PCA assay mice are passively sensitized by intradermal injection with anti-dinitrophenol (DNP) IgE antibodies (Day −1). At predetermined times animals are treated with the test agent (Day 0). The modulatory effect of the agent on cutaneous mast cell degranulation is measured following intravenous injection of DNP conjugated to human serum albumin (HSA-DNP), together with Evans blue dye. The resulting cross-linking of the IgE receptor and subsequent mast cell degranulation-induced increase in vascular permeability is determined by measuring the amount of dye extravasation into the tissue. Dye is extracted from the tissue by formamide, and the absorbance of this extract is read at 620 nm.

[4] = test system: cultured human mast cells (CHMC); experiment: CHMC low cell density IgE activation: tryptase assay; assay type: cell-based; settings: low cell density; read-out: CHMC anti-IgE Tryptase
How it was run: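 Supernatant tryptase activity, assayed with substrate for 30 min at room temperature, served as the degranulation measure. Mast cells (1000-1500 per well depending on donor) sat 1 hr at 37° C in MT before a 30 min anti-IgE challenge at 37° C.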

Primary human B-cells = experiment: Primary B-cell activation (α-IgM, CD69 upregulation); assay type: cell-based; settings: read-out: 1° B-Cell CD69 IC50
Protocol: Primary human B-cells were isolated from buffy coat, the white cell layer that forms between the red cells and the […] when anti-coagulated blood is centrifuged, or from fresh blood using CD19-Dynal® beads and a FACS. Buffy coat was obtained from the Stanford Medical School Blood Centre, prepared on the same day by the blood bank, stored and transported cold (with ice). The buffy coat (approx 35 mL) was placed in a 500 mL conical sterile centrifuge pot and cooled on ice, then diluted with cold PBS containing 0.2% BSA (Sigma: A7638) and sodium citrate (0.1%, Sigma: S-5570) (P—B—C) to a total volume of 200 mL and mixed gently. Fresh blood was collected from donors in 10 mL vacutainers containing heparin (1 vacutainer collects approximately 8.5 mL blood). The blood was cooled on ice, transferred into 50 mL falcon tubes (20 mL/tube) or a 500 mL conical sterile centrifuge pot, and diluted with an equal volume P—B—C.
25 mL diluted blood or buffy coat was layered onto 15 mL cold ficoll and placed back on ice. The ficoll layered blood was centrifuged (Beckman GS-6R) for 45 minutes at 2000 rpm, 4° C. to separate the Peripheral Blood Mononuclear Cells (PBMC) from the Red Blood Cells (RBC) and granulocytes. The top aqueous layer was then aspirated until 1 inch above the PBMC layer. The PBMCs were transferred from every 2 ficoll tubes into one clean 50 mL falcon tube (=approx 10 mL/tube). The transferred PBMCs were diluted 5× with icecold PBS with 0.2% BSA (P—B) and centrifuged for 20 min at 1400 rpm and 4° C. The supernatant (this may be cloudy) was then aspirated and the PBMCs resuspended into 25 mL P—B and the cells counted (using a 1:5 dilution) and kept on ice.
The cells were then positively selected using anti-CD 19 antibody coupled to magnetic beads (Dynal®) as per manufacturer's instructions. The approximate required amount of CD19-Dynal® beads (CD19-coated dyna beads M-450 (pabB), Dynal®) was calculated by estimating the number of B-cells as 5% of PBMCs counted and adding approximately10 beads per cell from the bead stock (4×10^8 beads/mL). The CD19-Dynal® beads were washed 2× in P—B in a 5 mL tube using the Dynal® magnet, then added into the suspended PBMCs. This mixture was then passed through the Dynal® magnet and washed several times to separate the bead-bound cells.
After separation, the beads and antibody were removed using Dynal® CD19-DETACHaBEAD® for 45 min at 30° C. Yield is typically 2×10^7 B-cells per buffy coat. B-cells were washed and resuspended as 1E6 cells/mL in RPMI1640+10% FBS+Penicillin/[…]+1 ng/mL IFNα8. Cells were rested overnight at 37° C. and 5% CO2.
The following day, cells were washed and resuspended in RPMI+2.5% FBS to 1×10^6 cells/mL. Cells were then aliquoted into a V-bottom 96-well plate (Corning) at 65 uL cells per well. By robot, 65 uL of a 2× compound was added to the cells with final concentration of DMSO at 0.2%, and incubated for 1 hr at 37° C. Cells were then stimulated with 20 uL 7.5× α-IgM from Jackson laboratories (final 5 ug/mL) for 24 hrs. At day 3, the cells were spun down and stained for CD69 and analyzed by FACS gated on the live cells (by light scatter).
Varied concentrations of compound were compared to solvent only to determine the inhibition of B-cell activation IC50 of each compound.

[5] = test system: Human Jurkat T-cells (clone N); experiment: Jurkat T-cell activation (anti-TCR, CD69 upregulation); assay type: cell-based; settings: Homo sapiens, Jurkat
How it was run: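 Readout is CD69 upregulation by flow cytometry (anti-CD69-APC, 20 min at 4 °C) after 20 h anti-TCR (C305, 500 ng/ml) stimulation at 37 °C.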

[6] = Mouse Reverse Passive Arthus reaction (RPA reaction); assay type: in vivo, C57BL/6 mice; settings: oral
Protocol: In this model system, test compounds are administered at several timepoints prior to administration of Abs and Ags. A solution of rabbit anti-OVA IgG (50 μg in 25 μl/mouse) is injected intradermally, and immediately following is an intravenous injection of chicken egg albumin (20 mg/kg of body weight) in a solution containing 1% Evans blue dye. The degree of edema and hemorrhage is measured in the dorsal skin of C57BL/6 mice using the Evan's Blue dye as an indicator of local tissue damage. Purified polyclonal rabbit IgG is used as a control.
Pretreatment time, in which the test compounds are administered prior to Ab/Ag challenge, depends on the pharmacokinetic (PK) properties of each individual compound. Four hours after induction of Arthus reaction, mice are euthanized, and tissues are harvested for assessment of edema.

Row | pIC50 [1] | pIC50 [2] | SMILES | further results
1 | < 5.00 | 5.77 | CNC(=O)COc1cccc(Nc2ncc(F)c(Nc3ccc(N4CCN(C(=O)OC)CC4)cc3)n2)c1 [Compound R945368] | –
2 | < 5.00 | 6.70 | CNC(=O)CCn1ncc2cc(Nc3ncc(F)c(Nc4ccc(Cl)cc4)n3)ccc21 [Compound R935382] | –
3 | < 5.00 | 5.40 | CNC(=O)COc1cccc(Nc2ncc(F)c(Nc3ccc(OC(F)(F)F)c(C(=O)N4CCOCC4)c3)n2)c1 [Compound R950411] | –
4 | < 5.00 | < 5.00 | CCOC(=O)CCn1ncc2cc(Nc3ncc(F)c(Nc4ccc(F)c(F)c4)n3)ccc21 [Compound R935384] | –
5 | < 5.00 | 5.89 | CNC(=O)COc1cccc(Nc2ncc(F)c(Nc3ccc(N4CCOCC4)cc3)n2)c1 [Compound R945367] | –
6 | < 5.00 | – | CC1(C)Oc2ccc(Nc3nc(Nc4ccc5cc[nH]c5c4)ncc3F)cc2NC1=O [Compound R926982] | pIC50 (Syk kinase): 7.55; pIC50 [4]: 6.92; pIC50 (Primary human B-cells): 6.40
7 | < 5.00 | < 5.00 | CNC(=O)COc1cccc(Nc2ncc(F)c(Nc3ccc(OC(F)(F)F)c(C(=O)NC)c3)n2)c1 [Compound R950407] | –

More lines, now with the values behind:

Row | SMILES | pIC50 [1] | pIC50 [2] | further results
8 | CNC(=O)COc1cccc(Nc2ncc(F)c(NC3CC3)n2)c1 [Compound R945372] | < 5.00 | 6.03 | –
9 | CCOC(=O)CCn1ncc2cc(Nc3ncc(F)c(Nc4ccc(OC)nc4OC)n3)ccc21 [Compound R935381] | < 5.00 | 5.11 | –
10 | Oc1c(Cl)cc(Nc2ncc(F)c(Nc3ccc(OC(F)(F)F)c(Cl)c3)n2)cc1Cl [Compound R927046] | < 5.00 | 5.62 | –
11 | CNCCNC(=O)c1cc(Nc2nc(Nc3cccc(OCC(=O)NC)c3)ncc2F)ccc1OC(F)(F)F [Compound R950408] | < 5.00 | 5.32 | –
12 | CC(=O)N(C)c1ccc(Nc2ncc(F)c(NC3CC3)n2)cc1 [Compound R945369] | < 5.00 | 5.90 | pIC50 (Syk kinase): 5.73
13 | CN(C)CCOC(c1ccccc1)c1ccccc1 [diphenhydramine, reference compound] | – | – | PCA response [3]: inhibit the PCA response
14 | CNC(=O)CCn1ncc2cc(Nc3ncc(F)c(Nc4ccc(F)c(F)c4)n3)ccc21 [Compound R935385] | < 5.00 | 6.66 | –
15 | CNC(=O)COc1cccc(Nc2ncc(F)c(Nc3ccc(OC(F)(F)F)c(C(=O)N4CCCCC4)c3)n2)c1 [Compound R950409] | < 5.00 | 5.49 | –
16 | COc1ccc(Nc2nc(Nc3cc(Cl)c(O)c(Cl)c3)ncc2F)cc1Cl [Compound R927044] | < 5.00 | 5.37 | –
17 | CNC(=O)COc1cccc(Nc2ncc(F)c(Nc3ccc(OC(F)(F)F)c(C(=O)NC[C@@H](O)CO)c3)n2)c1 [Compound R950410] | < 5.00 | < 5.00 | –
18 | COc1cc(Nc2ncc(F)c(Nc3ccc4c(c3)NC(=O)[C@H](C)O4)n2)cc(OC)c1 [Compound R908953] | – | – | pIC50 (Syk kinase): 7.77; pIC50 (Primary human B-cells): 5.70
19 | Fc1cnc(Nc2ccc(OCc3ccccc3)c(Cl)c2)nc1Nc1ccc(OCc2ccccc2)c(Cl)c1 [Compound R926965] | < 5.00 | < 5.00 | pIC50 [4]: < 5.00
20 | CCOc1ccc(Nc2nc(Nc3ccc4c(c3)OCCO4)ncc2F)cc1 [Compound R926213] | – | – | pIC50 (Primary human B-cells; Homo sapiens, B-cell): 4.36; pIC50 [5]: 5.05
21 | CC1(C)Oc2ccc(Nc3nc(Nc4ccc5cn[nH]c5c4)ncc3F)cc2NC1=O.O=S(=O)(O)c1ccccc1 [Compound R935429] | < 5.00 | – | % inhibition to vehicle control Edema Size ± SEM ([6]; 50 mg/kg, pretreatment time 1.5 hrs): −5.1 ± 14.9%; Plasma Concentration ± SEM (ng/ml) Exposure = Pretreatment Time + 4 hours ([6]; 50 mg/kg, pretreatment time 1.5 hrs + 4 hours): 164 ± 89 ng/mL; % inhibition to vehicle control Edema Size ± SEM ([6]; 100 mg/kg, pretreatment time 0 hrs): −2.8 ± 14.8%; Plasma Concentration ± SEM (ng/ml) Exposure = Pretreatment Time + 4 hours ([6]; 100 mg/kg, pretreatment time 1 hrs + 4 hours): 401 ± 96 ng/mL; % inhibition to vehicle control Edema Size ± SEM ([6]; 100 mg/kg, pretreatment time 1.5 hrs): 67.1 ± 13.8%; Plasma Concentration ± SEM (ng/ml) Exposure = Pretreatment Time + 4 hours ([6]; 100 mg/kg, pretreatment time 1.5 hrs + 4 hours): 206 ± 115 ng/mL; % inhibition to vehicle control Edema Size ± SEM ([6]; 100 mg/kg, pretreatment time 2 hrs): 55.5 ± 7.9%; % inhibition to vehicle control Edema Size ± SEM ([6]; 100 mg/kg, pretreatment time 4 hrs): 35.0 ± 11.4%; pIC50 [4]: 7.44
22 | CNC(=O)COc1cccc(Nc2ncc(F)c(Nc3ccc(OC(F)(F)F)c(C(=O)NCCN)c3)n2)c1 [Compound R950406] | < 5.00 | < 5.00 | –
